Patent US12116421B2, “Peptide-based Dopa containing adhesive gels” (KING ABDULLAH UNIVERSITY OF SCIENCE AND TECHNOLOGY, priority 2020, dated 2024)
Where a SMILES comes first, the peptide text is derived from it. [ ]: non-standard residue; d: D form. Dopa = N[C@@H](Cc1ccc(O)c(O)c1)C(=O)O; Cha = N[C@@H](CC1CCCCC1)C(=O)O

What was measured:
Acropora fragments = test: Coral fragments glued to a tile in sea water, selection of best glue; format: in vivo, Acropora spp.; details: for survival rate of the coral fragments: after 3 days, tile in aquarium with running seawater; for time to detachment of glued fragments under water: DoIIZK: one of the fragments, IIZDoK: all fragments; for Survival after 3 days in the aquarium / Survival after attachment: number of Acropora fragments of n = 3
Method: In one embodiment, coral fragments were attached to a tile using DoIIZK, IIZDoK, IIZKDo as a glue. The tile, to which the coral fragments were attached, has a size 10×10 cm and was placed into a shallow aquarium supplied with running seawater.
In one embodiment, the survival rate of the coral fragments fixed with DoIIZK was 67%, whereas the survival rate glued with IIZDoK and IIZKDo were respectively 0% and 100%, after 3 days.
The different glues were prepared at the same concentration of 40 mg/mL for DoIIZK, IIZDoK and IIZKDo. Then, the coral fragments were adhered to the surface of the tiles by applying gentle pressure as following: triplicates in the first line with DoIIZK as a glue, second line with IIZDoK and last line with IIZKDo. The experiment setup is illustrated in FIG. 40. The tiles were afterwards placed underwater in a tank containing filtered sea water. One of the fragments that was glued with DoIIZK detached less than 15 minutes after we placed the tile under water and all of the fragments that were glued with IIZDoK detached around 30 minutes after they have been placed under water.

[1] = AFM topography of peptide nanofibres; format: physicochemical; details: 13 mM in MilliQ water
Method: In one embodiment, DoIIZK and IIZKDo form nice long and twisted fibers whereas, but IIZDoK peptide performs scarcely even at the concentration of 10 mg/mL. The photos in FIG. 11 has a scalebar of 200 nm, while the photos in FIG. 12 has a scalebar of 400 nm. The peptides shown in FIGS. 11 and 12 are dissolved in MilliQ® water at the concentration of 13 mM. According to the AFM photos in FIGS. 15 and 16 and 3D plot shown in FIG. 11, peptides DoIIZK, IIZDoK and IIZKDo show the following structural properties: • DoIIZK: helical pitch of 24.75±1.46 nm; maximum diametre 1.01±0.14 nm; minimum diametre: 0.66±0.09 nm. • IIZDoK: helical pitch of 8.63±0.49 nm; maximum diametre 1.66±0.19 nm; minimum diametre: 1.16±0.17 nm. • IIZKDo: helical pitch of 24.21±1.24 nm; maximum diametre 3.87±0.28 nm; minimum diametre: 3.09±0.16 nm.
AFM topography measurements were performed on a Dimension Icon SPM (Bruker®). The samples were prepared as follows: peptides were dissolved at 13 mM concentration in MilliQ® water; after 30 minutes, 20 μl of these solutions were dropped on freshly cleaved mica sheets and immediately dried with an N2 stream. Measurements were immediately performed in tapping mode in air by the use of an AFM probe AC_240TS_R3 (Olympus®) with nominal free oscillation at roughly 70 kHz and a nominal spring constant of 2 N/m. The probe was calibrated by contact-free method.^54 Free oscillation amplitude was set at 200 mV with a 5% damping during tapping mode measurement. AFM adhesion measurements were performed on a JPK Nanowizard™ III mounted on Olympus® IX-81 inverted optical microscope. A mica sheet was glued one day before the experiment with double component epoxy glue to a glass slide and enclosed in a plastic o-ring provided by the JPK company for liquid measurements. Each peptide was dissolved in MilliQ® water at a concentration of 13 mM and mixed gently. Starting with the measurement in MilliQ® water, 50 μL of the solution were dropped on the freshly cleaved mica sheet within 5 minutes from the preparation of the solution and let equilibrate for 10 minutes. After, the excess solution was removed by pipetting and discarded. Then 1 mL of MilliQ® water was added gently from the side and after 5 minutes, the sample was rinsed 3 times by additional 1 mL MilliQ® water. Finally, the sample was measured by AFM force spectroscopy (Quantitative imaging mode) with additional 1 mL MilliQ® water. The MilliQ® water was exchanged after the measurement alternatively with a water solution containing 137 mM NaCl or 10 mM Phosphate ions (a combination of Na2HPO4·7H2O and NaH2PO4·H2O to reach pH 7.4). After performing the force spectroscopy map in these two different solutions, eventually, the liquid was exchanged with 1×PBS pH 7.4. To verify the presence of eventual fibers, after the measurement, the excess solution was removed by pipetting and discarded. The sample was then rinsed two times with 1 mL MilliQ® water and dried overnight in a vacuum chamber. The topography AFM imaging was performed using AC-240TS_R3 AFM probes in tapping mode in the JPK AFM.

[2] = glue 40 mg/mL, tile in filtered sea water

Row | SMILES | survival rate of the coral fragments (Acropora fragments) | time to detachment of glued fragments under water (Acropora fragments; [2]) | Survival after 3 days in the aquarium (Acropora fragments) | Survival after attachment (Acropora fragments) | helical pitch [1] | maximum diametre [1] | minimum diametre [1] | fragments sticking to the tile after 17 days (Acropora fragments; glue 40 mg/mL, tile in filtered sea water, triplicates)
1 | CC[C@H](C)[C@H](NC(=O)[C@H](Cc1ccc(O)c(O)c1)NC(C)=O)C(=O)N[C@H](C(=O)N[C@@H](CC1CCCCC1)C(=O)N[C@@H](CCCCN)C(N)=O)[C@@H](C)CC [DoIIZK, Ac-Dopa-Ile-Ile-Cha-Lys-NH2] (Ac-[Dopa]II[Cha]K-NH2) | 67% | less than 15 minutes | 2 | 3 | 24.75±1.46 nm | 1.01±0.14 nm | 0.66±0.09 nm | 
2 | CC[C@H](C)[C@H](NC(C)=O)C(=O)N[C@H](C(=O)N[C@@H](CC1CCCCC1)C(=O)N[C@@H](Cc1ccc(O)c(O)c1)C(=O)N[C@@H](CCCCN)C(N)=O)[C@@H](C)CC [IIZDoK, Ac-Ile-Ile-Cha-Dopa-Lys-NH2] (Ac-II[Cha][Dopa]K-NH2) | 0% | around 30 minutes | 0 | 3 | 8.63±0.49 nm | 1.66±0.19 nm | 1.16±0.17 nm | 
3 | CC[C@H](C)[C@H](NC(C)=O)C(=O)N[C@H](C(=O)N[C@@H](CC1CCCCC1)C(=O)N[C@@H](CCCCN)C(=O)N[C@@H](Cc1ccc(O)c(O)c1)C(N)=O)[C@@H](C)CC [IIZKDo, Ac-Ile-Ile-Cha-Lys-Dopa-NH2] (Ac-II[Cha]K[Dopa]-NH2) | 100% |  | 3 | 3 | 24.21±1.24 nm | 3.87±0.28 nm | 3.09±0.16 nm | still all sticking to the tile after 17 days
